# Test results taken from BindingDB's records for doi:10.1016/j.chembiol.2010.07.018 (University of Dundee, 2010).
# Starred links: 1 amine or outer side, 2 acyl side, 3 side chain; linkers in the order of their positions; H or OH if unused. Non-standard residues stand in square brackets, D forms with d. Residues, ends and D or L forms follow the SMILES beside them. Groups on a side chain read outwards from the residue. βAsp = O=C(O)[C@H](CC(=O)[*:2])N[*:1]; NMeF = CN[C@@H](Cc1ccccc1)C(=O)O; CO = O=C([*:1])[*:2]
# Molecular target: T1, Endochitinase A1 (Aspergillus fumigatus, UniProt Q873Y0)
# T1 sequence (Q873Y0 whole entry): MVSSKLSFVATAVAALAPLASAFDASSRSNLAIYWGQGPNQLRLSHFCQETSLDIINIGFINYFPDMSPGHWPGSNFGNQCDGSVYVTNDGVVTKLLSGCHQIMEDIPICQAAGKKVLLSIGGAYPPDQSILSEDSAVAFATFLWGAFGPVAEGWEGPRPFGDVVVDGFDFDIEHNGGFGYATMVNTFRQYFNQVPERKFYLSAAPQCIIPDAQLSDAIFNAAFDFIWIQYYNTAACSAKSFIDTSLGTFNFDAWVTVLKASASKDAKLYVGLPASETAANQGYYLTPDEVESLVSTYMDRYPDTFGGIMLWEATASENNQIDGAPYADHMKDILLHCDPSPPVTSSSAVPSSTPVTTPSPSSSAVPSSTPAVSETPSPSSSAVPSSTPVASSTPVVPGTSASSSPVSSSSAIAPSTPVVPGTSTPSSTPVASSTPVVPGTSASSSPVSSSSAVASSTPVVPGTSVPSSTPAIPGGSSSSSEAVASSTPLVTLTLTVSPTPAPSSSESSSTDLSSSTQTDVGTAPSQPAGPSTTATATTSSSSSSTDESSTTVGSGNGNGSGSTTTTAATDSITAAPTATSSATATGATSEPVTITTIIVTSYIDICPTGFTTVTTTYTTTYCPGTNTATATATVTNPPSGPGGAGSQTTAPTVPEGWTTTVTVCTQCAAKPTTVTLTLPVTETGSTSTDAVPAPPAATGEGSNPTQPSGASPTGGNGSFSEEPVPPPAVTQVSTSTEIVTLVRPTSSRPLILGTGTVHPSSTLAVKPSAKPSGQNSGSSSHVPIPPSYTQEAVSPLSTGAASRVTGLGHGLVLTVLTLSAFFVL
# Assay: Enzyme Inhibition Assay
# Details: pH 5.5; 37 °C
row,SMILES,IC50 [µM]
1,"CNC(=O)NC(=N)NC1CCCCC1 [Argifin-Derived Fragments, 5]",42
2,"CCN=C(N)NC(=O)NC [Argifin-Derived Fragments, 2]",310
3,"CNC(=O)NC(=N)NCCC[C@@H]1NC(=O)[C@@H](C)NC(=O)C[C@@H](C(=O)O)NC(=O)C[C@@H](C(=O)O)NC(=O)[C@H](Cc2ccccc2)N(C)C1=O [(2R,5S,8S,11S,15S)-8-benzyl-2,7-dimethyl-5-[3-({[(methylcarbamoyl)amino]methanimidoyl}amino)propyl]-3,6,9,13,17-pentaoxo-1,4,7,10,14-pentaazacycloheptadecane-11,15-dicarboxylic acid] (cyclo([NMeF][βAsp][βAsp][dA]R([CO-NHMe])))",> 3800
4,"CCCN=C(N)NC(=O)NC [Argifin-Derived Fragments, 3]",62
5,"[H]/N=C(\NC)NC(=O)NC [Argifin-Derived Fragments, 1]",79
6,"CNC(=O)NC(N)=Nc1ccccc1 [Argifin-Derived Fragments, 6]",112
7,"CNC(=O)NC(N)=NCc1ccccc1 [Argifin-Derived Fragments, 7]",299
8,"CCCCNC(=N)NC(=O)NC [Argifin-Derived Fragments, 4]",38
